Test results: PMC9680624 (RSC Advances, 2022)
In brackets after ≈: the same amount, converted by molar mass.

Legend:
MCF-7 = assay: In vitro anti-proliferative activity, MTT assay; format: cell-based; conditions: Homo sapiens, MCF7, 24 h, read-out: In vitro cytotoxicity IC50 MCF-7
HepG-2 = assay: In vitro anti-proliferative activity, MTT assay; format: cell-based; conditions: Homo sapiens, HepG2, 24 h, read-out: In vitro cytotoxicity IC50 HepG-2
PC3 = assay: In vitro anti-proliferative activity, MTT assay; format: cell-based; conditions: Homo sapiens, PC-3, 24 h, read-out: In vitro cytotoxicity IC50 PC3
caspase-8 = assay: Caspase-8 level in HepG-2 cell supernatant, ELISA; format: cell-based, human; conditions: for increase of caspase-8 level: HepG-2 cells, versus control cells; for CASPASE-8 level: HepG-2 supernatant, ELISA, 10 μM, 72 h, control 1.08
TNF-α = TNF-α level in HepG-2 cell supernatant, ELISA; format: cell-based, human; conditions: HepG-2 supernatant, 10 μM, 72 h, control 162.5
NF-κB P65 = NF-κB P65 level in HepG-2 cell lysate, ELISA; format: cell-based, human; conditions: 72 h, control 278.1
VEGF = VEGF level in HepG-2 cell supernatant, ELISA; format: cell-based, human; conditions: HepG-2 supernatant, 10 μM, 72 h, control 432.5
[1] = Cytotoxicity against Vero cells, MTT assay; format: cell-based; conditions: African green monkey, Vero cells (normal, non-cancerous cell line)
Vero cells = assay: Cytotoxicity against Vero cells, MTT assay; format: cell-based; conditions: for Selectivity index (SI) HepG-2: SI = cytotoxicity against Vero cells/cytotoxicity against HepG-2 cell line; for Selectivity index (SI) PC3: SI = cytotoxicity against Vero cells/cytotoxicity against PC3 cell line

Structure (SMILES)	IC50 (MCF-7) [µg/mL]	IC50 (HepG-2) [µg/mL]	IC50 (PC3) [µg/mL]	increase of caspase-8 level (caspase-8)	CASPASE-8 level (caspase-8) [ng mL^−1]	TNF-α level (TNF-α) [pg/mL]	NFκB P65 level (NF-κB P65) [pg/mL]	VEGF level (VEGF) [pg/mL]	IC50 [1] [µg/mL]	Selectivity index (SI) HepG-2 (Vero cells)	Selectivity index (SI) PC3 (Vero cells)	Selectivity index (SI) MCF-7 (Vero cells; SI = cytotoxicity against Vero cells/cytotoxicity against MCF-7 cell line)
NC(=O)NNc1nc(Cl)nc2cccc(Cl)c12 [Compound 15a, 2-(2,5-Dichloroquinazolin-4-yl)hydrazine-1-carboxamide]	17.3 ± 1.3 (≈ 63.7 µM)	24.5 ± 2 (≈ 90.1 µM)	26.1 ± 2 (≈ 95.8 µM)									
O=C1CCC(N2C(=O)c3ccccc3C2=O)C(=O)N1 (stereo not shown) [Thalidomide, thalidomide, reference compound]	14.6 ± 0.57 (≈ 56.5 µM)	11.3 ± 0.54 (≈ 43.6 µM)	16.9 ± 0.7 (≈ 65.3 µM)	8 folds	8.3	53.1	110.5	153.2				
Cc1ccc(S(=O)(=O)NNc2nc(Cl)nc3cccc(Cl)c23)cc1 [Compound 19a, N′-(2,5-Dichloroquinazolin-4-yl)-4-methylbenzenesulfonohydrazide]	12.8 ± 1 (≈ 33.3 µM)	19.1 ± 1.5 (≈ 49.8 µM)	21.5 ± 1.6 (≈ 56 µM)									
O=C1CCC(Nc2nc(Cl)nc3ccc(Cl)cc23)C(=O)N1 (stereo not shown) [Compound 13b, 3-((2,6-Dichloroquinazolin-4-yl)amino)piperidine-2,6-dione]	29.3 ± 2.3 (≈ 90.2 µM)	59 ± 3.3 (≈ 181 µM)	38.4 ± 3.1 (≈ 118 µM)									
Cc1ccc(S(=O)(=O)NNc2nnc(Cl)c3ccccc23)cc1 [Compound 24a, N′-(4-Chlorophthalazin-1-yl)-4-methylbenzenesulfonohydrazide]	6.07 ± 0.7 (≈ 17.4 µM)	3.87 ± 0.2 (≈ 11.1 µM)	8.63 ± 0.6 (≈ 24.7 µM)									
O=S(=O)(NNc1nnc(Cl)c2ccccc12)c1ccc(F)cc1 [Compound 24b, N′-(4-Chlorophthalazin-1-yl)-4-fluorobenzenesulfonohydrazide]	5.8 ± 0.4 (≈ 16.4 µM)	2.51 ± 0.1 (≈ 7.11 µM)	4.11 ± 0.3 (≈ 11.7 µM)	about 7 folds	6.9	82.5	76.5	185.3	161.1 ± 1.42 (≈ 457 µM)	65.18	39.80	
CNc1nc(Nc2ccc(F)c(Cl)c2)c2ccccc2n1 [Compound 7a, N ^4-(3-Chloro-4-fluorophenyl)-N^2-methylquinazoline-2,4-diamine]	28.1 ± 2.1 (≈ 92.9 µM)	40.5 ± 2.8 (≈ 134 µM)	47.2 ± 2.8 (≈ 156 µM)									
NC(=O)NNc1nc(Cl)nc2ccc(Cl)cc12 [Compound 15b, 2-(2,6-Dichloroquinazolin-4-yl)hydrazine-1-carboxamide]	9.87 ± 0.9 (≈ 36.3 µM)	16.2 ± 1.4 (≈ 59.5 µM)	13.8 ± 1.2 (≈ 50.7 µM)									
O=C1CCC(Nc2nc(Cl)nc3cccc(Cl)c23)C(=O)N1 (stereo not shown) [Compound 13a, 3-((2,5-Dichloroquinazolin-4-yl)amino)piperidine-2,6-dione]	35.3 ± 2.4 (≈ 109 µM)	46.3 ± 3.1 (≈ 142 µM)	54.3 ± 3 (≈ 167 µM)									
Fc1ccc(Nc2nc(Cl)nc3cccc(Cl)c23)cc1Cl [Compound 11a, 2,5-Dichloro-N-(3-chloro-4-fluorophenyl)quinazolin-4-amine]	86.1 ± 4.4 (≈ 251 µM)	77.2 ± 4.2 (≈ 225 µM)	91.3 ± 4.9 (≈ 266 µM)									
Fc1ccc(Nc2nc(Cl)nc3ccccc23)cc1Cl [Compound 6, 2-Chloro-N-(3-chloro-4-fluorophenyl)quinazolin-4-amine]	81.5 ± 4.2 (≈ 265 µM)	74.8 ± 4.1 (≈ 243 µM)	85 ± 4.7 (≈ 276 µM)									
Fc1ccc(Nc2nc(Cl)nc3ccc(Cl)cc23)cc1Cl [Compound 11b, 2,6-Dichloro-N-(3-chloro-4-fluorophenyl)quinazolin-4-amine]	45.9 ± 3 (≈ 134 µM)	38.7 ± 2.8 (≈ 113 µM)	51.2 ± 3.5 (≈ 149 µM)									
CCNc1nc(Nc2ccc(F)c(Cl)c2)c2ccccc2n1 [Compound 7b, N ^4-(3-Chloro-4-fluorophenyl)-N^2-ethylquinazoline-2,4-diamine]	9.45 ± 0.9 (≈ 29.8 µM)	11.7 ± 0.8 (≈ 36.9 µM)	15.5 ± 1.3 (≈ 48.9 µM)	threefold increase	3.2	79.3	113.7	218.5	163.6 ± 1.12 (≈ 516 µM)	13.78	10.40	17.04
O=S(=O)(NNc1nnc(Cl)c2ccccc12)c1ccccc1 [Compound 24c, N′-(4-Chlorophthalazin-1-yl)benzenesulfonohydrazide]	8.12 ± 0.7 (≈ 24.3 µM)	7.96 ± 0.5 (≈ 23.8 µM)	14.9 ± 1.1 (≈ 44.6 µM)									
O=S(=O)(NNc1nc(Cl)nc2cccc(Cl)c12)c1ccc(F)cc1 [Compound 19b, N′-(2,5-Dichloroquinazolin-4-yl)-4-fluorobenzenesulfonohydrazide]	20.5 ± 1.5 (≈ 52.9 µM)	28.9 ± 2.2 (≈ 74.7 µM)	32.7 ± 2.3 (≈ 84.5 µM)									
